Assay results published in patent publication US10758596B2, “Compositions and methods to prevent and treat biofilms” (ZIOLASE, LLC, priority 2011, dated 2020).
In brackets after ≈: the same amount, converted by molar mass. Where two headings read alike, the source gives them in different places.

Legend:
Format in all cases: cell-based
P. aeruginosa PAO1 [1] = assay: Biofilm mass formation (Crystal Violet staining), P. aeruginosa PAO1 biofilm; conditions: antibiotic alone 1/4 MIC added to 24 hour preformed biofilm
P. aeruginosa PAO1 [2] = assay: Bacterial cell viability (Resazurin assay), P. aeruginosa PAO1 biofilm
Procedure: (§1) Various parameters that were evaluated in each part of the analysis include: 1) Biofilm mass formation (% inhibition—by Crystal Violet staining method); 2) Bacterial cell viability (% inhibition—by Resazurin assay); and 3) Bacterial cell growth (by Colony Counting—CFU/ml plating).
The “U” corresponds to the International Units for the enzyme in each testing well. This dose was further used in subsequent experiments. […] In an old stage (72 hour of growth), the biofilm formation was still inhibited by about 50.0%. […]
(§2) The experimental design for the second strain on the preformed biofilm included: • Strain: P. aeruginosa PAO1 • Temperature: 35±2° C. • Incubation Conditions: Static • Time Points: Preformed biofilm for 24 hours, 24 hours of further growth • Treatment: (added to well containing a suspension of P. aeruginosa PAO1 ˜10^7 CFU/ml) • Solvent 1: 50% glycerol containing 1% Triton™ X-100 and 25 mM potassium phosphate, pH 6.5 • Solvent 2: 25 mM potassium phosphate, pH 6.5 • SIGMA Trehalase: 0.092 UI • Dialyzed Trehalase: 0.092 UI • Parameters Assessed: • Biofilm mass formation (staining with crystal violet 0.06%) • Cells viability (incubation with resazurin) • Cell growth by colony counting (CFU/mL)

S. aureus ATCC 25923 [3] = assay: Bacterial cell viability (Resazurin assay), S. aureus ATCC 25923
Procedure: as §1
(§3) There now follows greater details about tests that show the effect of Trehalase in gram-positive bacteria (MRSA and MSSA S. aureus). […] It inhibited viability of bacterial cells in the biofilm (about 84%, about 81%, and about 63% correspondingly by Resazurin assay), and reduced the bacterial cell growth in the 24 hour biofilm (about 1.5 log by CFU/ml compared to the Control).
as §2, with “first” for “second”, “early” for “preformed”, “S. aureus ATCC25923” for “P. aeruginosa PAO1”, “Points:” for “Points: Preformed biofilm for 24 hours,”, “hours” for “hours of further growth”
as §2, with “first” for “second”, “S. aureus ATCC25923” for “P. aeruginosa PAO1”, “(CFU/mL) […]” for “(CFU/mL)”

S. aureus ATCC 25923 [4] = assay: MIC by CLSI guidelines, S. aureus ATCC 25923
From the text: There is strong reproducibility of the data generated with S. aureus ATCC25923 (similar activity among different experiments).

S. aureus 3-Belgium = assay: MIC, S. aureus 3-Belgium
S. aureus ATCC 25923 [5] = assay: Bacterial cell growth by colony counting (CFU/mL), S. aureus ATCC 25923 biofilm and planktonic cells; conditions: antibiotic alone 1/4 MIC; 24 hour grown biofilm
Procedure: as §1, §3
as §2, with “first” for “second”, “early” for “preformed”, “S. aureus ATCC25923” for “P. aeruginosa PAO1”, “Points:” for “Points: Preformed biofilm for 24 hours,”, “hours” for “hours of further growth”, “(CFU/mL) […]” for “(CFU/mL)”

S. aureus ATCC33591 [6] = assay: Biofilm mass formation, S. aureus ATCC33591 24 hour grown biofilm; conditions: Trehalase 0.092 UI/well, antibiotic 1/4 MIC; early (24 hour grown) biofilm
Procedure: as §1

[7] = test system: S. aureus strains (MSSA Oxford, MSSA ATCC 35556, MRSA ATCC 25923); assay: MIC in broth (CLSI) in the presence and absence of Trehalase, selected S. aureus strains; conditions: Trehalase 0.092 UI, 24 hours
Procedure: There was testing of Trehalase on Clinical Isolates (S. aureus strains: Oxford, ATCC35556, and ATCC 25923 as the reference strain) at a time-point: 24 hours of biofilm growth.
The MIC determination with selected S. aureus strains proceeded as a first step. The materials and methods included:
S. aureus strains: Oxford; ATCC35556 and ATCC25923 (as reference strain)
In vitro assay: MIC in broth (according to CLSI guidelines)
Antibiotic concentration: two-fold series dilution from 16 to 0.0078 μg/mL
Incubation: T 37° C.; static condition

S. aureus ATCC 25923 [8] = assay: Biofilm mass formation (Crystal Violet staining), S. aureus ATCC 25923 biofilm; conditions: antibiotic alone 1/4 MIC; 24 hour grown biofilm
Procedure: as §1, §3
as §2, with “first” for “second”, “early” for “preformed”, “S. aureus ATCC25923” for “P. aeruginosa PAO1”, “Points:” for “Points: Preformed biofilm for 24 hours,”, “hours” for “hours of further growth”, “(CFU/mL) […]” for “(CFU/mL)”

S. aureus ATCC33591 [9] = assay: MIC, S. aureus ATCC33591
From the text: Neither Gentamicin (GENT), nor Vancomycin (VAN) in sub-MICc doses (¼/MIC) triggered biofilm induction response.

[10] = GENT/VAN experiment, Trehalase 0.092 UI/well, antibiotic 1/4 MIC, 24 hour grown biofilm

| Molecule | increase of biofilm mass formation (BIR) compared to Control level (P. aeruginosa PAO1 [1]) | effect on cell growth (S. aureus ATCC 25923 [5]) | inhibition / reduction of biofilm mass formation compared to Control (S. aureus ATCC33591 [6]) | inhibition of biofilm cell viability (Resazurin assay) (S. aureus ATCC 25923 [3]; [10]) | increased biofilm mass (biofilm induction response, BIR) compared to Negative Control (S. aureus ATCC 25923 [8]) | MIC (S. aureus ATCC 25923 [4]) [µg/mL] | other results |
| --- | --- | --- | --- | --- | --- | --- | --- |
| CC(C)(O/N=C(\C(=O)N[C@@H]1C(=O)N2C(C(=O)[O-])=C(C[n+]3ccccc3)CS[C@H]12)c1csc(N)n1)C(=O)O [Ceftazidime] | about 1.6 |  |  |  |  |  | inhibition of cell viability (Resazurin assay) (P. aeruginosa PAO1 [2]; Pseudomonas aeruginosa, 48 h): 25-50%; inhibition of biofilm cell viability (Resazurin assay) (S. aureus ATCC 25923 [3]; Staphylococcus aureus, 24 h): about 13%; MIC (S. aureus ATCC 25923 [4]; Staphylococcus aureus, ATCC25923, read-out: MIC): 8 µg/mL (≈ 14.6 µM) |
| CN[C@H](CC(C)C)C(=O)N[C@H]1C(=O)N[C@@H](CC(N)=O)C(=O)N[C@H]2C(=O)N[C@H]3C(=O)N[C@H](C(=O)N[C@H](C(=O)O)c4cc(O)cc(O)c4-c4cc3ccc4O)[C@H](O)c3ccc(c(Cl)c3)Oc3cc2cc(c3O[C@@H]2O[C@H](CO)[C@@H](O)[C@H](O)[C@H]2O[C@H]2C[C@](C)(N)[C@H](O)[C@H](C)O2)Oc2ccc(cc2Cl)[C@H]1O [Vancomycin] |  | no effect | about 20% | no effect | 1.8 fold | 2.0 (≈ 1.38 µM) | MIC (S. aureus 3-Belgium; Staphylococcus aureus, 3BELGIUM): 2 µg/mL (≈ 1.38 µM); effect of addition of Trehalase on MIC [7]: No significant effect; MIC (S. aureus ATCC33591 [9]; Staphylococcus aureus, ATCC33591): 2 µg/mL (≈ 1.38 µM) |
| Gentamicin |  | no effect | about 10% | no effect | two-fold | 2 | MIC (S. aureus 3-Belgium): 32.0 µg/mL; MIC value reduction on addition of Trehalase ([7]; clinical isolates): up to 16 fold; MIC value reduction on addition of Trehalase ([7]; reference isolates): ≤ 33 fold; MIC (S. aureus ATCC33591 [9]): 2.0 µg/mL |
| NC[C@H]1O[C@H](O[C@H]2[C@H](O)[C@@H](O[C@H]3O[C@H](CO)[C@@H](O)[C@H](N)[C@H]3O)[C@H](N)C[C@@H]2N)[C@H](N)C[C@@H]1O [Tobramycin] | about 1.4 |  |  |  |  |  | inhibition of cell viability (Resazurin assay) (P. aeruginosa PAO1 [2]; added at beginning, antibiotic 1/4 MIC, 24 hour grown biofilm): about 25%; inhibition of cell viability (Resazurin assay) (P. aeruginosa PAO1 [2]; added at beginning, sub-MIC antibiotic, 48 hour grown biofilm): about 25% |
